Results on four compounds are retold here after ChEMBL document CHEMBL5550154, “Novel biaryloxazolidinone derivatives with broad-spectrum antibacterial activity, favorable drug-like profiles and in vivo efficacy against linezolid-resistant Staphylococcusaureus” (Eur J Med Chem, 2024).

Series [1] in a line: Stability in simulated gastric acid assessed as compound remaining at pH 1.3 measured at 1.5 hrs. Type of series: ADME. The note with it: read-out: Stability.
The nature of series [2]: Stability in simulated gastric acid assessed as compound remaining at pH 1.3 measured at 1 hr. Type of series: ADME. The note with it: read-out: Stability.
A short description of series [3]: Stability in simulated gastric acid assessed as compound remaining at pH 1.3 measured at 0.5 hrs. The settings on record: read-out: Stability. Type of series: ADME.
Series [4] in a line: Stability in simulated gastric acid assessed as compound remaining at pH 1.3 measured immediately. It is filed as ADME. The note with it: read-out: Stability.
A short description of series [5]: Stability in simulated gastric acid assessed as compound remaining at pH 1.3 measured at 2 hrs. It is filed as ADME. The settings on record: read-out: Stability.
The subject of series [6] is Staphylococcus aureus. Put plainly: Antibacterial activity against Linezolid-resistant Staphylococcus aureus infected in systemic infection IG dosed SPF-kunming mouse model assessed as survival rate measured every day for 7 days. Type of series: functional, organism-based. The settings on record: dose 2.5-40 mg/kg, time 7.0 day.
The target in series [7] is T1, Amine oxidase [flavin-containing] B (Homo sapiens, UniProt P27338).
T1 sequence (P27338 whole entry): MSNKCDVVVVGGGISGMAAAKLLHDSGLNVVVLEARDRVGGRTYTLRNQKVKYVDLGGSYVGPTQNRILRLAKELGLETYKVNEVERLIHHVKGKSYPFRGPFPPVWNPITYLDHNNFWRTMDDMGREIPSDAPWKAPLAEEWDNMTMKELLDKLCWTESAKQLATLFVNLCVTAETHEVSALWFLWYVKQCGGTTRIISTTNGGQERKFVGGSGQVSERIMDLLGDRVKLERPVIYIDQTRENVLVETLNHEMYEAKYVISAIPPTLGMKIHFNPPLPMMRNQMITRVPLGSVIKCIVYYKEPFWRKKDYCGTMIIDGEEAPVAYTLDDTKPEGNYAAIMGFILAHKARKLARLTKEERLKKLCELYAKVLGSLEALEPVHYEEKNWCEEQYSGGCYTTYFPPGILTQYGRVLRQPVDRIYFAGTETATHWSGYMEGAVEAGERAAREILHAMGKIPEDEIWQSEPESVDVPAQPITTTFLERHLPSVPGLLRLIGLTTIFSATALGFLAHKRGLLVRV
Put plainly: Inhibition of MAO-B (unknown origin) preincubated with compound for 15 mins followed by substrate addition and measured after 60 mins by luminescence based microplate reader analysis. Type of series: toxicity.

Series [8] in a line: Efflux ratio of apparent permeability across […] side in human Caco-2 cells. It is filed as ADME, cell-based. (Caco-2 cells form a polarised layer with tight junctions and transporters.)
Series [9] has as its system Staphylococcus aureus. As to the kind of experiment: Antibacterial activity against Linezolid-resistant Staphylococcus aureus infected in systemic infection SPF-kunming mouse model assessed as survival rate at 2.5 mg/kg, IG measured every day for 7 days. Type of series: functional. The settings on record: po, 168 h, time 7 day.
Series [10] concerns Staphylococcus aureus. As to the kind of experiment: Antibacterial activity against Linezolid-resistant Staphylococcus aureus infected in systemic infection SPF-kunming mouse model assessed as survival rate at 10 mg/kg, IG measured every day for 7 days. Type of series: functional, organism-based. The note with it: time 7.0 day.
For series [11], the system named is Staphylococcus aureus. As to the kind of experiment: Antibacterial activity against Linezolid-resistant Staphylococcus aureus infected in systemic infection SPF-kunming mouse model assessed as survival rate at 40 mg/kg, IG measured every day for 7 days. It is filed as functional. The settings on record: po, 168 h, time 7 day.
Series [12] concerns Staphylococcus aureus. Put plainly: Antibacterial activity against Linezolid-resistant Staphylococcus aureus infected in systemic infection SPF-kunming mouse model assessed as survival rate at 10 to 40 mg/kg, IG measured 3 days after infection. It is filed as functional, organism-based. The settings on record: dose 10-40 mg/kg.
Series [13] concerns Staphylococcus aureus. As to the kind of experiment: Antibacterial activity against vancomycin-resistant Staphylococcus aureus assessed as inhibition of bacterial growth. It is filed as functional.
Series [14] has as its system Staphylococcus aureus. Put plainly: Antibacterial activity against methicillin-resistant Staphylococcus aureus assessed as inhibition of bacterial growth. Type of series: functional.
Series [15] relates to Staphylococcus aureus. As to the kind of experiment: Antibacterial activity against methicillin-sensitive Staphylococcus aureus assessed as inhibition of bacterial growth. Type of series: functional.

The structures appear in SMILES notation. In brackets after ≈: the same amount, converted by molar mass. Activity calls are given as the source filed them. The rule behind the calls is not given here.

Take `CC(C)N/N=C/c1ccc(-c2ccc(N3C[C@H](CO)OC3=O)cc2F)cn1`: the remaining at 1.5 h in series [1] was 90.8%. Further, in series [2], the remaining at 1 h was 94.3%. The remaining at 0.5 h in [3] is 96.7%. Besides, the remaining at 0 h in series [4] is 100%. For the same compound, the remaining at 2 h in [5] was 87.1%.
As usually defined, the IC50 is the point on the concentration scale where inhibition reaches its midpoint. In the case of `O=C1O[C@@H](CO)CN1c1ccc(-c2ccc(/C=N/N3CCOCC3)nc2)c(F)c1`, the Activity entry in the series on Staphylococcus aureus [6] is “Dose-Dependent Effect”. Moreover, the IC50 in [7] is 34.8 µM. Further, in [8], the Ratio is on record as 0.61. In the series with Staphylococcus aureus [9], the survival at 2.5 mg/kg was determined as 0%. Also, the result in the series on Staphylococcus aureus [10] was Active. Moreover, the survival at 40 mg/kg with Staphylococcus aureus [11] was found to be 100%.
Take `O=C1O[C@@H](CO)CN1c1ccc(-c2ccc(/C=N/N3CCCCC3)nc2)c(F)c1`: in series [8], the Ratio was 1.5. For the same compound, in the series on Staphylococcus aureus [12], the result was inactive.
Broadly, the MIC is the lowest concentration that inhibits growth of the organism. On to `CC(=O)NC[C@H]1CN(c2ccc(N3CCOCC3)c(F)c2)C(=O)O1` [LINEZOLID], for which the MIC in the series on Staphylococcus aureus [13], in the series on Staphylococcus aureus [14] and with Staphylococcus aureus [15] was 1 µg/mL (≈ 2.96 µM) each time.
